Patent US9955691B2, “Macrocyclic picolinamides as fungicides” (DOW AGROSCIENCES LLC, priority 2014, dated 2018)
Like-named read-outs stand apart in the source and are kept apart here.

How the values were obtained:
[1] = system: Mycosphaerella graminicola; Anamorph: Septoria tritici; assay: Fungicidal activity: Leaf Blotch of Wheat (SEPTTR); assay type: in vivo; conditions: Zymoseptoria tritici, wheat leaf blotch; for pest or weed control at 100 µg/mL: High Volume (100 ppm); for pest or weed control at 121.5 g/ha: Low Volume (121.5 g/H)
Protocol: Evaluation of Fungicidal Activity: Leaf Blotch of Wheat (Mycosphaerella graminicola; Anamorph: Septoria tritici; Bayer Code […]) Technical grades of materials were dissolved in acetone, which were then mixed with nine volumes of water containing 110 ppm Triton X-100. The fungicide solutions were applied onto wheat seedlings using an automated booth sprayer to run-off. All sprayed plants were allowed to air dry prior to further handling. All fungicides were evaluated using the aforementioned method for their activity vs. all target diseases, unless stated otherwise. Wheat leaf blotch and brown rust activity were also evaluated using track spray applications, in which case the fungicides were formulated as EC formulations, containing 0.1% Trycol 5941 in the spray solutions. Wheat plants (variety Yuma) were grown from seed in a greenhouse in 50% mineral soil/50% soil-less Metro mix until the first leaf was fully emerged, with 7-10 seedlings per pot. These plants were inoculated with an aqueous spore suspension of Septoria tritici either prior to or after fungicide treatments. After inoculation the plants were kept in 100% relative humidity (one day in a dark dew chamber followed by two to three days in a lighted dew chamber at 20° C.) to permit spores to germinate and infect the leaf. The plants were then transferred to a greenhouse set at 20° C. for disease to develop. When disease symptoms were fully expressed on the 1st leaves of untreated plants, infection levels were assessed on a scale of 0 to 100 percent disease severity. Percent disease control was calculated using the ratio of disease severity on treated plants relative to untreated plants.

Puccinia triticina = assay: Fungicidal activity: Wheat Brown Rust (PUCCRT); assay type: in vivo; conditions: for pest or weed control at 100 µg/mL: High Volume (100 ppm); for pest or weed control at 121.5 g/ha: Low Volume (121.5 g/H)
Protocol: Technical grades of materials were dissolved in acetone, which were then mixed with nine volumes of water containing 110 ppm Triton X-100. The fungicide solutions were applied onto wheat seedlings using an automated booth sprayer to run-off. All sprayed plants were allowed to air dry prior to further handling. All fungicides were evaluated using the aforementioned method for their activity vs. all target diseases, unless stated otherwise. Wheat leaf blotch and brown rust activity were also evaluated using track spray applications, in which case the fungicides were formulated as EC formulations, containing 0.1% Trycol 5941 in the spray solutions. Wheat plants (variety Yuma) were grown from seed in a greenhouse in 50% mineral soil/50% soil-less Metro mix until the first leaf was fully emerged, with 7-10 seedlings per pot. These plants were inoculated with an aqueous spore suspension of Septoria tritici either prior to or after fungicide treatments. After inoculation the plants were kept in 100% relative humidity (one day in a dark dew chamber followed by two to three days in a lighted dew chamber at 20° C.) to permit spores to germinate and infect the leaf. The plants were then transferred to a greenhouse set at 20° C. for disease to develop. When disease symptoms were fully expressed on the 1st leaves of untreated plants, infection levels were assessed on a scale of 0 to 100 percent disease severity. Percent disease control was calculated using the ratio of disease severity on treated plants relative to untreated plants. Evaluation of Fungicidal Activity: Wheat Brown Rust (Puccinia triticina; Synonym: Puccinia recondite f. Sp. Tritici; Bayer Code PUCCRT) Wheat plants (variety Yuma) were grown from seed in a greenhouse in 50% mineral soil/50% soil-less Metro mix until the first leaf was fully emerged, with 7-10 seedlings per pot. These plants were inoculated with an aqueous spore suspension of Puccinia triticina either prior to or after fungicide treatments. After inoculation the plants were kept in a dark dew room at 22° C. with 100% relative humidity overnight to permit spores to germinate and infect the leaf. The plants were then transferred to a greenhouse set at 24° C. for disease to develop. Fungicide formulation, application and disease assessment followed the procedures as described in the Example A.

[2] = 24 h, 1 Day Protectant, read-out: SEPTTR 1 DP disease control
[3] = 72 h, 3 Day Curative, read-out: SEPTTR 3 DC disease control
[4] = 24 h, 1 Day Protectant, read-out: PUCCRT 1 DP disease control
[5] = 72 h, 3 Day Curative, read-out: PUCCRT 3 DC disease control

Row | Structure (SMILES) | pest or weed control at 100 µg/mL [1, 2] [%] | pest or weed control at 100 µg/mL [1, 3] [%] | pest or weed control at 100 µg/mL (Puccinia triticina; [4]) [%] | pest or weed control at 100 µg/mL (Puccinia triticina; [5]) [%] | pest or weed control at 121.5 g/ha [1, 2] [%] | pest or weed control at 121.5 g/ha [1, 3] [%] | pest or weed control at 121.5 g/ha (Puccinia triticina; [4]) [%] | pest or weed control at 121.5 g/ha (Puccinia triticina; [5]) [%]
1 | COc1ccnc(C(=O)N[C@H]2COC[C@H](Cc3ccccc3)[C@@H](Cc3ccccc3)[C@@H](C)OC2=O)c1OCOC(C)=O [compound 2] | < 70 | < 70 | < 70 | < 70 | – | – | – | –
2 | COc1ccnc(C(=O)N[C@H]2COC[C@@H]3CCCC[C@H]3[C@@H](C)OC2=O)c1OCOC(C)=O [compound 5] | < 70 | < 70 | < 70 | – | – | – | – | –
3 | COc1ccnc(C(=O)N[C@H]2COC[C@@H]3CCCC[C@H]3[C@H](C)OC2=O)c1OCOC(C)=O [compound 6] | < 70 | < 70 | > 70 | – | – | – | – | –
4 | COc1ccnc(C(=O)N[C@H]2COC[C@H](CCC(C)C)[C@@H](CCC(C)C)[C@H](C)OC2=O)c1OCOC(C)=O [compound 8] | > 70 | > 70 | > 70 | > 70 | – | – | – | –
5 | COc1ccnc(C(=O)N[C@H]2COC[C@H](Cc3ccccc3)[C@@H](COCC(C)C)[C@H](C)OC2=O)c1OCOC(C)=O [compound 12] | > 70 | > 70 | > 70 | > 70 | > 70 | > 70 | > 70 | < 70
6 | CCCC[C@@H]1[C@@H](Cc2ccccc2)COC[C@H](NC(=O)c2nccc(OC)c2OCOC(C)=O)C(=O)O[C@H]1C [compound 14] | < 70 | < 70 | < 70 | < 70 | – | – | – | –
7 | CCCC[C@@H]1[C@@H](Cc2ccccc2)COC[C@H](NC(=O)c2nccc(OC)c2OC(C)=O)C(=O)O[C@H]1C [compound 15] | > 70 | > 70 | > 70 | > 70 | > 70 | > 70 | > 70 | > 70
8 | COc1ccnc(C(=O)N[C@H]2COC[C@H](Cc3ccccc3)[C@@H](CC(C)C)[C@H](C)OC2=O)c1OC(C)=O [compound 18] | – | – | – | – | > 70 | > 70 | > 70 | < 70
9 | COc1ccnc(C(=O)N[C@H]2COC[C@H](Cc3ccccc3)[C@@H](CC(C)C)[C@H](C)OC2=O)c1OCOC(C)=O [compound 19] | – | – | – | – | > 70 | > 70 | > 70 | > 70
10 | COc1ccnc(C(=O)N[C@H]2COC[C@H](Cc3ccccc3)[C@@H](CC(C)C)[C@H](C)OC2=O)c1OCOC(=O)C(C)C [compound 20] | – | – | – | – | > 70 | > 70 | > 70 | > 70
11 | CCOCC(=O)OCOc1c(OC)ccnc1C(=O)N[C@H]1COC[C@H](Cc2ccccc2)[C@@H](CC(C)C)[C@H](C)OC1=O [compound 21] | – | – | – | – | > 70 | > 70 | > 70 | > 70
12 | CCC[C@H]1COC[C@H](NC(=O)c2nccc(OC)c2OC(C)=O)C(=O)O[C@@H](C)[C@@H]1Cc1ccccc1 [compound 22] | – | – | – | – | > 70 | > 70 | > 70 | > 70
13 | CCC[C@H]1COC[C@H](NC(=O)c2nccc(OC)c2OCOC(C)=O)C(=O)O[C@@H](C)[C@@H]1Cc1ccccc1 [compound 23] | – | – | – | – | > 70 | > 70 | > 70 | > 70
14 | CCC[C@H]1COC[C@H](NC(=O)c2nccc(OC)c2OCOC(=O)C(C)C)C(=O)O[C@@H](C)[C@@H]1Cc1ccccc1 [compound 24] | – | – | – | – | > 70 | > 70 | > 70 | > 70
15 | CCC[C@H]1COC[C@H](NC(=O)c2nccc(OC)c2OCOC(=O)COCC)C(=O)O[C@@H](C)[C@@H]1Cc1ccccc1 [compound 25] | – | – | – | – | > 70 | > 70 | > 70 | > 70
16 | COc1ccnc(C(=O)N[C@H]2COC[C@H](CC3CCCC3)[C@@H](CC3CCCC3)[C@H](C)OC2=O)c1OCOC(C)=O [compound 26] | – | – | – | – | > 70 | > 70 | > 70 | > 70
17 | CCOCC(=O)OCOc1c(OC)ccnc1C(=O)N[C@H]1COC[C@H](Cc2ccccc2)[C@@H](Cc2ccccc2)[C@H](C)OC1=O [compound 28] | – | – | – | – | > 70 | > 70 | > 70 | > 70
18 | COc1ccnc(C(=O)N[C@H]2COC[C@H](Cc3ccccc3)[C@@H](CCc3ccccc3)[C@H](C)OC2=O)c1OC(C)=O [compound 29] | – | – | – | – | > 70 | > 70 | > 70 | > 70
19 | COc1ccnc(C(=O)N[C@H]2COC[C@H](Cc3ccccc3)[C@@H](CCc3ccccc3)[C@H](C)OC2=O)c1OCOC(C)=O [compound 30] | – | – | – | – | > 70 | > 70 | > 70 | > 70
20 | COc1ccnc(C(=O)N[C@H]2COC[C@H](Cc3ccccc3)[C@@H](CCc3ccccc3)[C@H](C)OC2=O)c1OCOC(=O)C(C)C [compound 31] | – | – | – | – | > 70 | > 70 | > 70 | > 70
21 | CCOCC(=O)OCOc1c(OC)ccnc1C(=O)N[C@H]1COC[C@H](Cc2ccccc2)[C@@H](CCc2ccccc2)[C@H](C)OC1=O [compound 32] | – | – | – | – | > 70 | > 70 | > 70 | > 70
22 | COc1ccnc(C(=O)N[C@H]2COC[C@H](CCC(C)C)[C@@H](CCc3ccccc3)[C@H](C)OC2=O)c1OC(C)=O [compound 33] | – | – | – | – | > 70 | > 70 | > 70 | > 70
23 | COc1ccnc(C(=O)N[C@H]2COC[C@H](CCC(C)C)[C@@H](CCc3ccccc3)[C@H](C)OC2=O)c1OCOC(C)=O [compound 34] | – | – | – | – | > 70 | > 70 | > 70 | > 70
24 | COc1ccnc(C(=O)N[C@H]2COC[C@H](CCC(C)C)[C@@H](CCc3ccccc3)[C@H](C)OC2=O)c1OCOC(=O)C(C)C [compound 35] | – | – | – | – | > 70 | > 70 | > 70 | > 70
